Laboratory results from the CheMixHub ionic liquid set.
± gives the uncertainty stated by the source.

Experiment: xn = mol fraction of the nth substance listed
Conditions: 101 kPa

## CCCCCCCCCCCCCC[n+]1ccccc1.O=C([O-])C(O)c1ccccc1 + NCC(=O)O + O
293.15 K, x1 = 5.26e-06, x2 = 0.001799
  electrical conductivity: 0.00213 ± 0.00065 S/m
293.15 K, x1 = 6.85e-06, x2 = 0
  electrical conductivity: 0.00248 ± 0.00074 S/m
293.15 K, x1 = 8.31e-06, x2 = 0.0009002
  electrical conductivity: 0.00273 ± 0.00067 S/m
293.15 K, x1 = 1.142e-05, x2 = 0.001799
  electrical conductivity: 0.00389 ± 0.00073 S/m
293.15 K, x1 = 1.319e-05, x2 = 0.0009002
  electrical conductivity: 0.00415 ± 0.00075 S/m
293.15 K, x1 = 1.424e-05, x2 = 0
  electrical conductivity: 0.00472 ± 0.00079 S/m
293.15 K, x1 = 1.685e-05, x2 = 0.001799
  electrical conductivity: 0.0054 ± 0.00081 S/m
293.15 K, x1 = 1.735e-05, x2 = 0.0009002
  electrical conductivity: 0.00534 ± 0.00078 S/m
293.15 K, x1 = 2.12e-05, x2 = 0.001799
  electrical conductivity: 0.0066 ± 0.00089 S/m
293.15 K, x1 = 2.126e-05, x2 = 0
  electrical conductivity: 0.00671 ± 0.0009 S/m
293.15 K, x1 = 2.367e-05, x2 = 0.0009002
  electrical conductivity: 0.00703 ± 0.00092 S/m
293.15 K, x1 = 2.591e-05, x2 = 0.001799
  electrical conductivity: 0.00789 ± 0.00099 S/m
293.15 K, x1 = 2.811e-05, x2 = 0
  electrical conductivity: 0.0086 ± 0.001 S/m
293.15 K, x1 = 2.982e-05, x2 = 0.0009002
  electrical conductivity: 0.0088 ± 0.001 S/m
293.15 K, x1 = 3.081e-05, x2 = 0.001799
  electrical conductivity: 0.0092 ± 0.0011 S/m
293.15 K, x1 = 3.46e-05, x2 = 0
  electrical conductivity: 0.0103 ± 0.0011 S/m
293.15 K, x1 = 3.668e-05, x2 = 0.0009002
  electrical conductivity: 0.0104 ± 0.0011 S/m
293.15 K, x1 = 3.679e-05, x2 = 0.001799
  electrical conductivity: 0.0106 ± 0.0012 S/m
293.15 K, x1 = 4.108e-05, x2 = 0
  electrical conductivity: 0.0117 ± 0.0012 S/m
293.15 K, x1 = 4.337e-05, x2 = 0.0009001
  electrical conductivity: 0.0117 ± 0.0012 S/m
293.15 K, x1 = 4.367e-05, x2 = 0.001799
  electrical conductivity: 0.0119 ± 0.0013 S/m
293.15 K, x1 = 4.811e-05, x2 = 0
  electrical conductivity: 0.0129 ± 0.0013 S/m
293.15 K, x1 = 4.951e-05, x2 = 0.0009001
  electrical conductivity: 0.0126 ± 0.0013 S/m
293.15 K, x1 = 5.11e-05, x2 = 0.001799
  electrical conductivity: 0.0131 ± 0.0014 S/m
293.15 K, x1 = 5.388e-05, x2 = 0
  electrical conductivity: 0.0137 ± 0.0014 S/m
293.15 K, x1 = 5.602e-05, x2 = 0.0009001
  electrical conductivity: 0.0135 ± 0.0014 S/m
293.15 K, x1 = 5.726e-05, x2 = 0.001799
  electrical conductivity: 0.014 ± 0.0014 S/m
293.15 K, x1 = 5.982e-05, x2 = 0
  electrical conductivity: 0.0145 ± 0.0015 S/m
293.15 K, x1 = 6.216e-05, x2 = 0.0009001
  electrical conductivity: 0.0144 ± 0.0015 S/m
293.15 K, x1 = 6.361e-05, x2 = 0.001799
  electrical conductivity: 0.0149 ± 0.0015 S/m
293.15 K, x1 = 6.559e-05, x2 = 0
  electrical conductivity: 0.0153 ± 0.0016 S/m
293.15 K, x1 = 6.885e-05, x2 = 0.0009001
  electrical conductivity: 0.0154 ± 0.0016 S/m
293.15 K, x1 = 6.959e-05, x2 = 0.001799
  electrical conductivity: 0.0156 ± 0.0016 S/m
293.15 K, x1 = 7.081e-05, x2 = 0
  electrical conductivity: 0.016 ± 0.0016 S/m
293.15 K, x1 = 7.463e-05, x2 = 0.0009001
  electrical conductivity: 0.0161 ± 0.0016 S/m
293.15 K, x1 = 7.593e-05, x2 = 0.001799
  electrical conductivity: 0.0165 ± 0.0017 S/m
293.15 K, x1 = 7.604e-05, x2 = 0
  electrical conductivity: 0.0167 ± 0.0017 S/m
293.15 K, x1 = 8.023e-05, x2 = 0.0009001
  electrical conductivity: 0.0168 ± 0.0017 S/m
293.15 K, x1 = 8.072e-05, x2 = 0
  electrical conductivity: 0.0173 ± 0.0018 S/m
298.15 K, x1 = 5.26e-06, x2 = 0.001799
  electrical conductivity: 0.0024 ± 0.00073 S/m
298.15 K, x1 = 6.85e-06, x2 = 0
  electrical conductivity: 0.00278 ± 0.00083 S/m
298.15 K, x1 = 8.31e-06, x2 = 0.0009002
  electrical conductivity: 0.00309 ± 0.00075 S/m
298.15 K, x1 = 1.142e-05, x2 = 0.001799
  electrical conductivity: 0.00438 ± 0.00082 S/m
298.15 K, x1 = 1.319e-05, x2 = 0.0009002
  electrical conductivity: 0.0047 ± 0.00085 S/m
298.15 K, x1 = 1.424e-05, x2 = 0
  electrical conductivity: 0.00529 ± 0.00089 S/m
298.15 K, x1 = 1.685e-05, x2 = 0.001799
  electrical conductivity: 0.0061 ± 0.00092 S/m
298.15 K, x1 = 1.735e-05, x2 = 0.0009002
  electrical conductivity: 0.00605 ± 0.00089 S/m
298.15 K, x1 = 2.12e-05, x2 = 0.001799
  electrical conductivity: 0.0075 ± 0.001 S/m
298.15 K, x1 = 2.126e-05, x2 = 0
  electrical conductivity: 0.0076 ± 0.001 S/m
298.15 K, x1 = 2.367e-05, x2 = 0.0009002
  electrical conductivity: 0.008 ± 0.001 S/m
298.15 K, x1 = 2.591e-05, x2 = 0.001799
  electrical conductivity: 0.009 ± 0.0011 S/m
298.15 K, x1 = 2.811e-05, x2 = 0
  electrical conductivity: 0.0097 ± 0.0012 S/m
298.15 K, x1 = 2.982e-05, x2 = 0.0009002
  electrical conductivity: 0.0098 ± 0.0012 S/m
298.15 K, x1 = 3.081e-05, x2 = 0.001799
  electrical conductivity: 0.0104 ± 0.0012 S/m
298.15 K, x1 = 3.46e-05, x2 = 0
  electrical conductivity: 0.0116 ± 0.0013 S/m
298.15 K, x1 = 3.668e-05, x2 = 0.0009002
  electrical conductivity: 0.0118 ± 0.0013 S/m
298.15 K, x1 = 3.679e-05, x2 = 0.001799
  electrical conductivity: 0.012 ± 0.0013 S/m
298.15 K, x1 = 4.108e-05, x2 = 0
  electrical conductivity: 0.0131 ± 0.0014 S/m
298.15 K, x1 = 4.337e-05, x2 = 0.0009001
  electrical conductivity: 0.0131 ± 0.0014 S/m
298.15 K, x1 = 4.367e-05, x2 = 0.001799
  electrical conductivity: 0.0134 ± 0.0014 S/m
298.15 K, x1 = 4.811e-05, x2 = 0
  electrical conductivity: 0.0144 ± 0.0015 S/m
298.15 K, x1 = 4.951e-05, x2 = 0.0009001
  electrical conductivity: 0.0143 ± 0.0015 S/m
298.15 K, x1 = 5.11e-05, x2 = 0.001799
  electrical conductivity: 0.0148 ± 0.0015 S/m
298.15 K, x1 = 5.388e-05, x2 = 0
  electrical conductivity: 0.0154 ± 0.0016 S/m
298.15 K, x1 = 5.602e-05, x2 = 0.0009001
  electrical conductivity: 0.0153 ± 0.0016 S/m
298.15 K, x1 = 5.726e-05, x2 = 0.001799
  electrical conductivity: 0.0158 ± 0.0016 S/m
298.15 K, x1 = 5.982e-05, x2 = 0
  electrical conductivity: 0.0163 ± 0.0017 S/m
298.15 K, x1 = 6.216e-05, x2 = 0.0009001
  electrical conductivity: 0.0162 ± 0.0016 S/m
298.15 K, x1 = 6.361e-05, x2 = 0.001799
  electrical conductivity: 0.0167 ± 0.0017 S/m
298.15 K, x1 = 6.559e-05, x2 = 0
  electrical conductivity: 0.0172 ± 0.0018 S/m
298.15 K, x1 = 6.885e-05, x2 = 0.0009001
  electrical conductivity: 0.0172 ± 0.0018 S/m
298.15 K, x1 = 6.959e-05, x2 = 0.001799
  electrical conductivity: 0.0176 ± 0.0018 S/m
298.15 K, x1 = 7.081e-05, x2 = 0
  electrical conductivity: 0.018 ± 0.0018 S/m
298.15 K, x1 = 7.463e-05, x2 = 0.0009001
  electrical conductivity: 0.0181 ± 0.0018 S/m
298.15 K, x1 = 7.593e-05, x2 = 0.001799
  electrical conductivity: 0.0185 ± 0.0019 S/m
298.15 K, x1 = 7.604e-05, x2 = 0
  electrical conductivity: 0.0187 ± 0.0019 S/m
298.15 K, x1 = 8.023e-05, x2 = 0.0009001
  electrical conductivity: 0.0189 ± 0.0019 S/m
298.15 K, x1 = 8.072e-05, x2 = 0
  electrical conductivity: 0.0194 ± 0.002 S/m
303.15 K, x1 = 5.26e-06, x2 = 0.001799
  electrical conductivity: 0.00272 ± 0.00082 S/m
303.15 K, x1 = 6.85e-06, x2 = 0
  electrical conductivity: 0.00309 ± 0.00092 S/m
303.15 K, x1 = 8.31e-06, x2 = 0.0009002
  electrical conductivity: 0.00343 ± 0.00084 S/m
303.15 K, x1 = 1.142e-05, x2 = 0.001799
  electrical conductivity: 0.00491 ± 0.00092 S/m
303.15 K, x1 = 1.319e-05, x2 = 0.0009002
  electrical conductivity: 0.00527 ± 0.00096 S/m
303.15 K, x1 = 1.424e-05, x2 = 0
  electrical conductivity: 0.00587 ± 0.00099 S/m
303.15 K, x1 = 1.685e-05, x2 = 0.001799
  electrical conductivity: 0.0069 ± 0.001 S/m
303.15 K, x1 = 1.735e-05, x2 = 0.0009002
  electrical conductivity: 0.00678 ± 0.00099 S/m
303.15 K, x1 = 2.12e-05, x2 = 0.001799
  electrical conductivity: 0.0084 ± 0.0011 S/m
303.15 K, x1 = 2.126e-05, x2 = 0
  electrical conductivity: 0.0084 ± 0.0011 S/m
303.15 K, x1 = 2.367e-05, x2 = 0.0009002
  electrical conductivity: 0.0089 ± 0.0012 S/m
303.15 K, x1 = 2.591e-05, x2 = 0.001799
  electrical conductivity: 0.01 ± 0.0012 S/m
303.15 K, x1 = 2.811e-05, x2 = 0
  electrical conductivity: 0.0108 ± 0.0013 S/m
303.15 K, x1 = 2.982e-05, x2 = 0.0009002
  electrical conductivity: 0.011 ± 0.0013 S/m
303.15 K, x1 = 3.081e-05, x2 = 0.001799
  electrical conductivity: 0.0117 ± 0.0014 S/m
303.15 K, x1 = 3.46e-05, x2 = 0
  electrical conductivity: 0.0129 ± 0.0014 S/m
303.15 K, x1 = 3.668e-05, x2 = 0.0009002
  electrical conductivity: 0.0132 ± 0.0014 S/m
303.15 K, x1 = 3.679e-05, x2 = 0.001799
  electrical conductivity: 0.0134 ± 0.0015 S/m
303.15 K, x1 = 4.108e-05, x2 = 0
  electrical conductivity: 0.0146 ± 0.0015 S/m
